Source: US8030071B2, “Restoration of cholesterol independence and its use as a selectable marker in NS0 cell culture” (priority 2005, dated 2011)

Legend:
NS0 cells [1] = test: 5-azacytidine treatment and limiting dilution plating for cholesterol independent clones; type: cell-based, mouse
Procedure: Treatment with 5-azacytidine (5azaC) and isolation of cholesterol independent clones. NS0 cells at 200,000 cells/ml were treated with 5azaC (1 μM and 5 μM) in tissue culture flasks. After 48 hrs, the cells were washed and limiting dilution plating was carried out in 10 96-well plates at a dilution of 2,000 cells/well using CD Hybridoma medium without cholesterol supplement. Untreated NS0 cells were also plated in cholesterol-free medium as a control for background cholesterol independent variants in the cell population. The plates were incubated at 5% CO2, 37° C. and saturated humidity for 1-2 weeks.
5azaC treated cells were aliquoted into 96-well cell culture plates containing cholesterol-free medium. […] Single cell colonies were isolated from the 96-well culture plates and expanded to tissue culture flasks for further characterization.

Hsd17b7 = Hsd17b7 transcription after 5-azacytidine treatment (real-time PCR); type: cell-based, mouse; conditions: NS0 cells treated with 5-azacytidine
Procedure: Reverse Transcription and Real-time comparative quantitative PCR. Total RNA was extracted from cells in exponential growth phase using the RNeasy Mini Kit (Qiagen, Valencia, Calif., USA), followed by reverse transcription with Superscript™ II RNase H^− Reverse Transcriptase (Invitrogen). For real-time comparative PCR analysis, samples were prepared using QuantiTect SYBR Green PCR kit (Qiagen) and reactions run on ABI 7700 (Applied Biosystems, Foster City, Calif., USA). Samples were analyzed in duplicates and β-actin was used as the normalization message. The fold change was calculated using the comparative CT method.

other systems = conditions: baseline spontaneous reactivation frequency of 10^−5 or less (Holliday et al.); cited from earlier work
NS0 cells [2] = test: Growth kinetics of NS0 cells in tissue culture flasks with sterol supplement; type: cell-based, mouse; conditions: 5.0 μg/ml sterol, 4 mg/ml fatty acid-free BSA; for maximum cell density: after 70 hrs in culture; for growth of NS0 cells supported: tissue culture flasks
Procedure: The medium in all four flasks was supplemented with 4 mg/ml fatty acid-free BSA.
Cells and cell culture. NS0 and NS0_r, the cholesterol independent revertant, were obtained from Pfizer, Inc. (St. Louis, Mo.) and have been described previously (Seth et al., Biotechnol Bioeng, 90:552-67, 2005). Growth response of NS0 cells to various cholesterol biosynthesis pathway precursors and intermediates was studied in CD Hybridoma medium (Invitrogen, Carlsbad, Calif., USA) without cholesterol-lipid concentrate. […] Each well containing 1.5 ml precursor-supplemented medium was seeded with 2×10^5 cells/ml. NS0 cells cultured in the presence of cholesterol served as the positive control. Different intermediates were dissolved in 100% ethanol and added to the culture medium along with 4 mg/ml fatty acid-free BSA (Sigma, St. Louis, Mo., USA). […] Citric acid anhydrous, mevalonolactone, squalene, lanosterol, lathosterol, 7-dehydrocholesterol and cholesterol powder were purchased from Sigma (St. Louis, Mo., USA). All test conditions were performed in duplicate. The medium was supplemented with 4 mg/ml fatty acid-free BSA. Presence of BSA facilitates uptake of the sterol precursors (Sato et al., Mol Biol Med, 2, 121-34:1984).
In order to verify the block between lanosterol and lathosterol in the cholesterol biosynthetic pathway, growth kinetics of NS0 cells in the presence of lanosterol (5.0 μg/ml), lathosterol (5.0 μg/ml) and cholesterol (5.0 μg/ml) were determined. Cells were also grown in basal medium supplemented with fatty acid-free BSA only (FIG. 2b). […] Cells attained a maximum cell density of 4×10^6 cells/ml after 70 hrs in culture with lathosterol, compared to 3×10^6 cells/ml in medium supplemented with cholesterol. These observations were consistent over repeated cultures. The results support the notion that the block between lanosterol and lathosterol in the biosynthesis of cholesterol in NS0 is at least partly responsible for cholesterol auxotrophy in this cell line.

NS0 cells [3] = test: Growth response of NS0 cells in 24-well plates to cholesterol biosynthesis precursors/intermediates; type: cell-based, mouse; conditions: cholesterol-free CD Hybridoma medium, 4 mg/ml fatty acid-free BSA, three concentrations per precursor
Procedure: Cells and cell culture. […] Growth response of NS0 cells to various cholesterol biosynthesis pathway precursors and intermediates was studied in CD Hybridoma medium (Invitrogen, Carlsbad, Calif., USA) without cholesterol-lipid concentrate. […] Each well containing 1.5 ml precursor-supplemented medium was seeded with 2×10^5 cells/ml. NS0 cells cultured in the presence of cholesterol served as the positive control. Different intermediates were dissolved in 100% ethanol and added to the culture medium along with 4 mg/ml fatty acid-free BSA (Sigma, St. Louis, Mo., USA). […] All test conditions were performed in duplicate. The medium was supplemented with 4 mg/ml fatty acid-free BSA.

| SMILES | maximum cell density (NS0 cells [2]) | growth of NS0 cells supported by precursor/intermediate (NS0 cells [3]) | growth of NS0 cells supported (NS0 cells [2]) | also measured |
| --- | --- | --- | --- | --- |
| Nc1ncn([C@@H]2O[C@H](CO)[C@@H](O)[C@H]2O)c(=O)n1 [5azaC, 5-azacytidine] |  |  |  | reversion rate to cholesterol independence (NS0 cells [1]; 1 μM 5azaC): less than 1×10^−6; Survival frequency of wells in a 96-well plate culture (NS0 cells [1]; 5 μM 5azaC, 2,000 cells/well, cholesterol-free medium): ~80 % of wells; cholesterol revertants after exposure (NS0 cells [1]; 5 μM 5azaC, 48 hrs, then cholesterol-free medium): many cholesterol revertants; transcriptional repression of Hsd17b7 (Hsd17b7): relieved; reactivated cells (other systems): 10-30% |
| CC(C)CCC[C@@H](C)[C@H]1CC[C@H]2[C@@H]3CC=C4C[C@@H](O)CC[C@]4(C)[C@H]3CC[C@]12C [cholesterol] | 3×10^6 cells/ml |  |  |  |
| CC(C)=CCC[C@@H](C)[C@H]1CC[C@@]2(C)C3=C(CC[C@]12C)[C@@]1(C)CC[C@H](O)C(C)(C)[C@@H]1CC3 [lanosterol] |  | Growth was not supported | unable to support the growth of NS0 cells |  |
| CC(C)CCC[C@@H](C)[C@H]1CC[C@H]2C3=CC[C@H]4C[C@@H](O)CC[C@]4(C)[C@H]3CC[C@]12C [lathosterol] | 4×10^6 cells/ml | able to support the growth of cells | effective in promoting the growth of NS0 cells |  |
| C[C@@]1(O)CCOC(=O)C1 [mevalonolactone] |  | Growth was not supported |  |  |
| CC(C)=CCC/C(C)=C/CC/C(C)=C/CC/C=C(\C)CC/C=C(\C)CCC=C(C)C [squalene] |  | Growth was not supported |  |  |
